Legend:
[1] = target: T1, human mineralocorticoid receptor (hMR) ligand-binding domain (GAL4-hMR receptor) (Homo sapiens, UniProt P08235); test: GAL4-hMR luciferase reporter assay in HEK293 cells in the presence of 1 nM aldosterone (mineralocorticoid receptor antagonistic activity); assay type: cell-based; details: for IC50: concentration giving Imax/2, HEK293, 1 nM aldosterone present, overnight incubation, read-out: ICmax50; for Imax: maximum value from the graph of relative luciferase activity, DMSO control = 0%, 1 nM aldosterone control = 100%
T1 construct: expressed in transfected cells; host or cells: HEK293
T1 sequence (P08235 726-964 limits assumed): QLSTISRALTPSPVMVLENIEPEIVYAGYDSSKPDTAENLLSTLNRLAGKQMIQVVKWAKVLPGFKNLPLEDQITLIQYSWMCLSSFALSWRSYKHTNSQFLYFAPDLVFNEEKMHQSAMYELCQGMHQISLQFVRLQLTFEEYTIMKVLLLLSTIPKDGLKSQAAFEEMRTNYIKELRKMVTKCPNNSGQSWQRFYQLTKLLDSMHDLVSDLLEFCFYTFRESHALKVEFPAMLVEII
Source text: A plasmid pM-hMR-LBD which is obtained by ligation of a ligand-binding domain (LBD, corresponding to a region of about 308 amino acids at the carboxy terminus) of human mineralocorticoid receptor (hMR, NM_000901) to a DNA-binding domain (corresponding to a region of 147 amino acids at the amino terminus) of a yeast transcription factor GAL4 and expresses GAL4-hMR receptor was constructed. Using a reporter plasmid which has a sequence binding to the DNA-binding domain of GAL4 (UAS sequence) and contains a luciferase gene (such as pFR-Luc, a plasmid available from Stratagene Cloning Systems), a reporter assay was performed.
The previously obtained plasmid pM-hMR-LBD and the reporter plasmid were transfected into a human fetus-derived renal cell line HEK293 by the lipofection method. On the following day, the cells were treated with trypsin and collected. A white 96-well plate (manufactured by Costar, Inc.) was prepared, and the cells were dispensed into each well in an amount of 95 μL using a DMEM medium containing 5% FBS (fetal bovine serum) which had been treated with activated charcoal.
As for each test compound, solutions obtained by dissolving the test compound in dimethyl sulfoxide at predetermined concentrations were used, and the solutions were appropriately diluted with medium and added to the cells in the white 96-well plate to give a final concentration of 0.1%. When the test compound was added, 1 nM aldosterone was allowed to be present. A well group to which dimethyl sulfoxide was added was assigned Control 1 group; and a well group to which 1 nM aldosterone was added was assigned Control 2 group. After the addition, the plate was incubated overnight.
On the following day, the medium was removed, and a luciferase substrate (Wako Pure Chemical Industries, Ltd.) was prepared according to the package insert and added to each well in an amount of 50 μL, and then, the plate was stirred for about 30 minutes. The luminescence intensity of each well was measured using Analyst (manufactured by Molecular Devices Corporation) and taken as the luciferase activity. The luciferase activity value of Control 1 group was taken as 0%, the luciferase activity value of Control 2 group was taken as 100%, and relative luciferase activity values for the respective doses of the test compound in the test compound addition group were plotted to create a graph. From the graph, the maximum value was calculated as Imax (%), and the concentration of the test compound showing the value of Imax/2 was calculated as ICmax50 (M). In Table 1, ICmax50 values are shown.

[2] = Plasma pharmacokinetics after oral administration to cynomolgus monkeys (LC-MS/MS); assay type: in vivo; details: male cynomolgus monkey, 3 mg/kg to the stomach in 0.5% MC, fasted; for Cmax: po, read-out: Cmax: Maximum concentration
Description: Cynomolgus monkeys (male) were used, and the monkeys were fasted from one day before the test compound was administered. The administration sample was prepared by adding a 0.5% MC (methyl cellulose) solution to the test compound such that the dose was 3 mg/2 mL/kg. Each administration sample was administered to the stomach of the cynomolgus monkey using a tube. After the sample was administered, about 5 mL of water was administered. Each administration sample was administered to three cynomolgus monkeys in one group.
As for blood collection, about 1 mL of blood was collected from the femoral vein before administration, and […] 1, 2, 4, 6, 8, 24 and 48 hours after administration using an injection syringe treated with heparin. The collected blood was centrifuged (15,000×g, […], 4° C.) to obtain plasma. The obtained plasma was stored in a freezer (−20° C.) until pretreatment.
Preparation of Standard Solution and Internal Standard (IS) Solution: Each test compound was dissolved in acetonitrile, whereby a 1 mg/mL solution of each test compound was prepared. A standard solution was prepared by diluting each compound solution with acetonitrile. Further, sodium warfarin (Wako Pure Chemical Industries, Ltd.) was dissolved in acetonitrile to prepare a 500 ng/mL IS solution. Pretreatment of Plasma Sample: 50 μL of the plasma sample was taken out and 50 μL of acetonitrile was added thereto. For a calibration curve, 50 μL of each standard solution (acetonitrile solution) was added to 50 μL of the blank plasma. To all the samples, 150 μL of the IS acetonitrile solution was added, and the mixture was stirred, and then centrifuged (about 1,800×g, 30 min, 4° C.). After filtration was performed with Sirocco Protein Precipitation Plate (Waters Corporation), the filtrate was appropriately diluted with a mobile phase to prepare an LC-MS/MS analysis sample. Determination of Test Compound: The plasma concentration of each test compound was analyzed by the LC-MS/MS method. [HPLC Analysis Conditions]
Analysis: A pharmacokinetics parameter was calculated from the plasma concentration of each agent using WinNonlin Professional (Ver. 4.0.1, Pharsight Corporation). Incidentally, Noncompartment model was used as a model for calculation of the parameter.

Compound	IC50 [1] [nM]	Imax [1] [%]	AUC: Area under the plasma concentration versus time curve (0-48 hr.) [2] [ng·h/mL]	Cmax [2] [ng/mL]
Cc1c(C(=O)Nc2ccc(S(C)(=O)=O)cc2)cn(C)c1-c1ccccc1C(F)(F)F (racemic) [Example 1, (+/−)-1,4-dimethyl-N-[4-(methylsulfonyl)phenyl]-5-[2-(trifluoromethyl)phenyl]-1H-pyrrole-3-carboxamide]	13	95	860	42
Cc1c(C(=O)Nc2ccc(S(C)(=O)=O)cc2)cn(CCO)c1-c1ccccc1C(F)(F)F (racemic) [Example 3, (+/−)-1-(2-hydroxyethyl)-4-methyl-N-[4-(methylsulfonyl)phenyl]-5-[2-(trifluoromethyl)phenyl]-1H-pyrrole-3-carboxamide]		105	7667	380
COc1ccc(-c2c(C)c(C(=O)Nc3ccc(S(C)(=O)=O)cc3)cn2CCO)c(C(F)(F)F)c1 (racemic) [Example 5, (+/−)-1-(2-hydroxyethyl)-5-[4-methoxy-2-(trifluoromethyl)phenyl]-4-methyl-N-[4-(methylsulfonyl)phenyl]-1H-pyrrole-3-carboxamide]	5.3	97	33	2
Cc1c(C(=O)Nc2ccc(S(C)(=O)=O)cc2)cn(C)c1-c1ccccc1C(F)(F)F (single isomer, unassigned) [Isomer A, (−)-1,4-dimethyl-N-[4-(methylsulfonyl)phenyl]-5-[2-(trifluoromethyl)phenyl]-1H-pyrrole-3-carboxamide]	> 1000			
Cc1c(C(=O)Nc2ccc(S(C)(=O)=O)cc2)cn(C)c1-c1ccccc1C(F)(F)F (single isomer, unassigned) [Isomer B, (+)-1,4-dimethyl-N-[4-(methylsulfonyl)phenyl]-5-[2-(trifluoromethyl)phenyl]-1H-pyrrole-3-carboxamide]	2.6	123	3446	184

Second part, the compound after the results:

IC50 [1] [nM]	Imax [1] [%]	AUC: Area under the plasma concentration versus time curve (0-48 hr.) [2] [ng·h/mL]	Cmax [2] [ng/mL]	Compound
> 1000				Cc1c(C(=O)Nc2ccc(S(C)(=O)=O)cc2)cn(CCO)c1-c1ccccc1C(F)(F)F (single isomer, unassigned) [Isomer C, (+)-1-(2-hydroxyethyl)-4-methyl-N-[4-(methylsulfonyl)phenyl]-5-[2-(trifluoromethyl)phenyl]-1H-pyrrole-3-carboxamide]
2.4	99	26390	1330	Cc1c(C(=O)Nc2ccc(S(C)(=O)=O)cc2)cn(CCO)c1-c1ccccc1C(F)(F)F (single isomer, unassigned) [Isomer D, (−)-1-(2-hydroxyethyl)-4-methyl-N-[4-(methylsulfonyl)phenyl]-5-[2-(trifluoromethyl)phenyl]-1H-pyrrole-3-carboxamide]
1.8	115	7187	681	COc1ccc(-c2c(C)c(C(=O)Nc3ccc(S(C)(=O)=O)cc3)cn2CCO)c(C(F)(F)F)c1 (single isomer, unassigned) [Isomer E, (−)-1-(2-hydroxyethyl)-5-[4-methoxy-2-(trifluoromethyl)phenyl]-4-methyl-N-[4-(methylsulfonyl)phenyl]-1H-pyrrole-3-carboxamide]
> 1000				COc1ccc(-c2c(C)c(C(=O)Nc3ccc(S(C)(=O)=O)cc3)cn2CCO)c(C(F)(F)F)c1 (single isomer, unassigned) [Isomer F, (+)-1-(2-hydroxyethyl)-5-[4-methoxy-2-(trifluoromethyl)phenyl]-4-methyl-N-[4-(methylsulfonyl)phenyl]-1H-pyrrole-3-carboxamide]
